This note sets out measurements from patent US20200108070A2, “INHIBITORS OF FIBROBLAST GROWTH FACTOR RECEPTOR AND USE THEREOF” (Nanjing TransThera Biosciences Co. Ltd., priority 2016, published 2020).

Structures are written as SMILES.

The target of test [1] is FGFR1 (Homo sapiens, UniProt P11362). As to the kind of experiment: Enzymatic activity test (LabChip EZ Reader II / Caliper), FGFR1. It counts as biochemical. The note with it: FGFR1(h), FAM-labelled polypeptide substrate and ATP, 30 min incubation; read-out: Inhibitory activity against FGFR (IC50) FGFR1. As for the experimental part: (§1) Experimental Example 1: Enzymatic Activity Test of the Compounds of the Present Invention
(§2) Test substance: The compounds of the present invention, the structures of which are shown above.
(§3) Test Instrument: The LabChip EZ Reader II drug screening platform.
(§4) 1. Preparation for compound plate a) 96-well plates, 10 dose groups, 3-fold serial dilutions, added DMSO to each well, maximal concentration of 500 μM. b) 384-well plates, diluted with 1× kinase buffer (50 mM HEPES, pH 7.5; 0.0015% Brij-35; 2 mM DTT), each well containing 5× compound dissolved in 5 μL of 10% DMSO. The negative control well was 5 μL of 1× kinase buffer containing 10% DMSO. 2. Experimental procedure
(§5) […] in 1× kinase buffer were reacted with 2.5× enzyme solution at room temperature for 10 min, and then the FAM-labelled polypeptide substrate and ATP were added to initiate reaction. After incubation for 30 min, 25 μL of terminal solution (100 mM HEPES, pH 7.5; 0.015% Brij-35; 0.2% Coating Reagent #3; 50 mM EDTA) was added to terminate the reaction, and the final data were read by Caliper.

Test [2] addresses FGFR4 (Homo sapiens, UniProt P22455). Briefly: Enzymatic activity test (LabChip EZ Reader II / Caliper), FGFR4. It counts as biochemical. The conditions noted are these: FGFR4(h), FAM-labelled polypeptide substrate and ATP, 30 min incubation; read-out: Inhibitory activity against FGFR (IC50) FGFR4. As for the experimental part:
as §1, §2, §3, §4, §5

Test [3] relates to Hep3B. As to the kind of experiment: Cellular activity test (Cell titer-Glo), Hep3B. It counts as cell-based. The note with it: Homo sapiens, hepatocellular carcinoma cell with abnormal FGFR, 72 h, read-out: Inhibitory activity against cells (IC50) Hep3B.
Excerpt: (§6) Experimental Example 2: Celluar Activity Test of the Compounds of the Present Invention
(§7) Hep3B is a cell with abnormal FGFR in hepatocellular carcinoma RT112/84 is a cell with abnormal FGFR in bladder cancer DMS114 is a cell with abnormal FGFR in small cell lung cancer AN3CA is a cell with abnormal FGFR in endometrial cancer SNU-16 is a cell with abnormal FGFR in gastric cancer
as §2
(§8) Test instrument: The Espire multi-function microplate reader.
(§9) Each cell line was seeded into a 96-well plate, and adherent cultured overnight. Then, the compounds at different concentrations (12 dose groups, 3× DMSO serial dilutions) were added to a final concentration of 0.17-30000 nM, with the final content of DMSO of 5‰. The negative control well was medium containing 5‰ DMSO. After incubation at 37° C., 5% CO2, 95% humidity for 72 h, the cultures would be test. 30 μL of Cell titer-Glo reagent was added to each well and incubated for 30 min at room temperature. The final data were read by Espire microplate reader.
(ATP-based viability assays read luminescence as a measure of living cells.)

Test [4] has as its system RT112/84. As to the kind of experiment: Cellular activity test (Cell titer-Glo), RT112/84. It counts as cell-based. The note with it: Homo sapiens, RT112/84, bladder cancer cell with abnormal FGFR, 72 h, read-out: Inhibitory activity against cells (IC50) RT112/84.
Excerpt: as §6, §7, §2, §8, §9

Test [5] relates to DMS114. As to the kind of experiment: Cellular activity test (Cell titer-Glo), DMS114. It counts as cell-based. The note with it: Homo sapiens, DMS-114, DMS114, small cell lung cancer cell with abnormal FGFR, 72 h, read-out: Inhibitory activity against cells (IC50) DMS114.
Excerpt: as §6, §7, §2, §8, §9

For test [6], the system named is AN3CA. Briefly: Cellular activity test (Cell titer-Glo), AN3CA. It counts as cell-based. The conditions noted are these: Homo sapiens, AN3-CA, endometrial cancer cell with abnormal FGFR, 72 h, read-out: Inhibitory activity against cells (IC50) AN3CA.
Excerpt: as §6, §7, §2, §8, §9

Test [7] concerns the target FGFR3 (Homo sapiens, UniProt P22607). Briefly: Enzymatic activity test (LabChip EZ Reader II / Caliper), FGFR3. It counts as biochemical. The conditions noted are these: FGFR3(h), FAM-labelled polypeptide substrate and ATP, 30 min incubation; read-out: Inhibitory activity against FGFR (IC50) FGFR3. How it is done:
as §1, §2, §3, §4, §5

FGFR1, sequence (P11362 22-822): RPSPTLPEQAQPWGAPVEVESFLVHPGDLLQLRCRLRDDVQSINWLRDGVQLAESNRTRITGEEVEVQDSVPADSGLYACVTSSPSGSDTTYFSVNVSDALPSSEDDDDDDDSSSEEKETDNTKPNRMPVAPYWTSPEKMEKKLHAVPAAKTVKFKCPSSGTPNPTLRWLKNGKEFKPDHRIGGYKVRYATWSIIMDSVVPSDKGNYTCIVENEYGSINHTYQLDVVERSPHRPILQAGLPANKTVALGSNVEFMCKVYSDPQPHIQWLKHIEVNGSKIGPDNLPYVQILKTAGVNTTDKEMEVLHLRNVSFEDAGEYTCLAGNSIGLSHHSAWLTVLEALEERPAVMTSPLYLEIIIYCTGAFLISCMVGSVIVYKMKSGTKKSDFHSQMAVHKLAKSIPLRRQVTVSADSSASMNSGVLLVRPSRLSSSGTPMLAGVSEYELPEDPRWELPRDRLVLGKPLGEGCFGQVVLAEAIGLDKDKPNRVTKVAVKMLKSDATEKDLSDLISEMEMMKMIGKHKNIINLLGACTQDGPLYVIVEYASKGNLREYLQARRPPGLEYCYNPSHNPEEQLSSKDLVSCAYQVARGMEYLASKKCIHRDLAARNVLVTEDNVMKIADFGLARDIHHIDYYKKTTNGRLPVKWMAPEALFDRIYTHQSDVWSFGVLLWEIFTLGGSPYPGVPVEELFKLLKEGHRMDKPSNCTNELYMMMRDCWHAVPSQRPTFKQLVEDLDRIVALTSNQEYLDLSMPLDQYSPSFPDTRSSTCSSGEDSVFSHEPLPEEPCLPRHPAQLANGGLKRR
FGFR3, sequence (P22607 23-806): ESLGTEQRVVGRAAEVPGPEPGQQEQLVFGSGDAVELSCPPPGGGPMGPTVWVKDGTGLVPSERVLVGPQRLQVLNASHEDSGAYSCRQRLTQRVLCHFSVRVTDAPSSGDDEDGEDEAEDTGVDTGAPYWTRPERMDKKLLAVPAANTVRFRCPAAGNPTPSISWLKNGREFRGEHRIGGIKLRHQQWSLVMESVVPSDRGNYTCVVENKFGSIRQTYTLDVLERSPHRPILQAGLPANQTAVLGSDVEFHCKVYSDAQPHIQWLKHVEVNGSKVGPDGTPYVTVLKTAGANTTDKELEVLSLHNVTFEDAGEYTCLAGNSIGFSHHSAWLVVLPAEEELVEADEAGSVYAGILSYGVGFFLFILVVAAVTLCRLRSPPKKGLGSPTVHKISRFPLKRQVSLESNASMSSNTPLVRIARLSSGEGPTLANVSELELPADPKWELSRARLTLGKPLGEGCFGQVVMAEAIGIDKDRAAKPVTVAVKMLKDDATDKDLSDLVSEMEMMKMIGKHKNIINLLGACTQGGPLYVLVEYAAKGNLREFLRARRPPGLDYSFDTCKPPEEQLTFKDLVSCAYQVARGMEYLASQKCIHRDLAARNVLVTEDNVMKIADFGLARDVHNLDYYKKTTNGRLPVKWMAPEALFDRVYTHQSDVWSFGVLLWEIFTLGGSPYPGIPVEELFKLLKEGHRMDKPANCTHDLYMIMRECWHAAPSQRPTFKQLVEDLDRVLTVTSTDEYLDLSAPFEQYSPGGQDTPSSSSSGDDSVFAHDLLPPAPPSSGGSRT
FGFR4, sequence (P22455 22-802): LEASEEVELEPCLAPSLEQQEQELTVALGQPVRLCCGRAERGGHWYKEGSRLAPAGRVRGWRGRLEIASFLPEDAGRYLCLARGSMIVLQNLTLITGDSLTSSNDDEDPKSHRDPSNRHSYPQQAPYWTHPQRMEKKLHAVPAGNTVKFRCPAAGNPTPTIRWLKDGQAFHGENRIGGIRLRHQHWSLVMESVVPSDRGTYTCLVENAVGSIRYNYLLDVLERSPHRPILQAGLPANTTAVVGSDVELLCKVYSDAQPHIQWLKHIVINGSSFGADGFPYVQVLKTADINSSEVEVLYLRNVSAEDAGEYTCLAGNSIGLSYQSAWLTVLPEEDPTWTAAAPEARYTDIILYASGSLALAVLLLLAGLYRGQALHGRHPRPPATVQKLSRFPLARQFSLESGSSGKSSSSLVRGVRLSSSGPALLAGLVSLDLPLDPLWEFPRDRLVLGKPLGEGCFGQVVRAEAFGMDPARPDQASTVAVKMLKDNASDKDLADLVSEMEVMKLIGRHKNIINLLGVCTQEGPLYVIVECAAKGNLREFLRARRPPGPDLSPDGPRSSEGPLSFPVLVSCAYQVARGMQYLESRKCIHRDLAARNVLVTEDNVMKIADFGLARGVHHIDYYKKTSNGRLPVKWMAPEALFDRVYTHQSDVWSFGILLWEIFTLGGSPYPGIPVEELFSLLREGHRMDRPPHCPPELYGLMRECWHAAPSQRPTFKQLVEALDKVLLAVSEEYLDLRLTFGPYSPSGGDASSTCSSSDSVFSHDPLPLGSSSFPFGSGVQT

Regarding `C=CC(=O)N1C[C@@H]2C[C@H]1[C@@H]2Nc1ncc2cc(-c3c(Cl)c(OC)cc(OC)c3Cl)ccc2n1` (relative stereo) [Compound 11, 1-(trans-5-((6-(2,6-dichloro-3,5-dimethoxyphenyl)quinazolin-2-yl)amino)-2-azabicyclo[2.1.1]hexane-2-yl)prop-2-en-1-one], the values for the IC50 in test [1] and in test [2] were 21 nM and 198 nM, respectively.
`C=CC(=O)N1C[C@@H](Nc2ncc3cc(-c4c(Cl)c(OC)cc(OC)c4Cl)ccc3n2)C[C@H]1C(C)(C)O` (stereo in doubt) [Compound 31, 1-((2R,4R)-4-((6-(2,6-dichloro-3,5-dimethoxyphenyl)quinazolin-2-yl)amino)-2-(2-hydroxypropyl-2-yl)pyrrolidin-1-yl)prop-2-en-1-one]: the IC50 was found to be 3.7 nM in test [1]; 46 nM in test [3]; 70 nM in test [4]; 25 nM in test [5]; 117 nM in test [6]; 103 nM in test [2].
`C=CC(=O)N1C[C@@H](Nc2ncc3cc(-c4c(Cl)c(OC)cc(OC)c4Cl)ccc3n2)C2(CC2)C1` (stereo in doubt) [Compound 66]: the IC50 in test [1] stood at 15 nM; in test [2], 318 nM.
Turning to `C=CC(=O)N1CCCC(Nc2ncc3cc(-c4c(Cl)c(OC)cc(OC)c4Cl)ccc3n2)C1` (stereo not shown) [Compound 1], the IC50 in test [2] came out at 153 nM.
For `C=CC(=O)N1CC[C@@H](Nc2ncc3cc(-c4c(Cl)c(OC)cc(OC)c4Cl)ccc3n2)C1` [Compound 6, (R)-1-(3-((6-(2,6-dichloro-3,5-dimethoxyphenyl)quinazolin-2-yl)amino)pyrrolidin-1-yl)prop-2-en-1-one], the IC50 in test [1] was < 3 nM; in test [7] it was 18 nM; in test [2], 780 nM.
`C=CC(=O)N1CC(Nc2ncc3cc(-c4c(Cl)c(OC)cc(OC)c4Cl)ccc3n2)C1` [Compound 9]: the results for the IC50 in test [1], in test [7] and in test [2] were < 3 nM, 8 nM and 301 nM, respectively.
For the compound `C=CC(=O)N1CCC(Nc2ncc3cc(-c4c(Cl)c(OC)cc(OC)c4Cl)ccc3n2)CC1` [Compound 10, 1-(4-((6-(2,6-dichloro-3,5-dimethoxyphenyl)quinazolin-2-yl)amino)piperidin-1-yl)prop-2-en-1-one], the IC50 in test [1] is < 3 nM; in test [7], 7 nM; in test [2] it was 177 nM.
For `C=CC(=O)N1C[C@@H](Nc2ncc3cc(-c4c(Cl)c(OC)cc(OC)c4Cl)ccc3n2)C[C@H]1C` [Compound 21, 1-((2R,4S)-4-((6-(2,6-dichloro-3,5-dimethoxyphenyl)quinazolin-2-yl)amino)-2-methylpyrrolidin-1-yl)propyl-2-en-1-one], the IC50 came out at 8 nM in test [1], 54 nM in test [4], 176 nM in test [6] and 330 nM in test [2].
`C=CC(=O)N1C[C@@H](Nc2ncc3cc(-c4c(Cl)c(OC)cc(OC)c4Cl)ccc3n2)C[C@H]1CC#N` [Compound 27, 2-((2S,4S)-1-acryloyl-4-((6-(2,6-dichloro-3,5-dimethoxyphenyl)quinazolin-2-yl)amino)pyrrolidin-2-yl)acetonitrile]: the IC50 in test [1] stood at 18 nM; in test [3], 82 nM; in test [4], 127 nM; in test [5], 72 nM; in test [2], 261 nM.
Regarding `C=CC(=O)N1C[C@@H](Nc2ncc3cc(-c4c(Cl)c(OC)cc(OC)c4Cl)ccc3n2)C[C@H]1C(=O)N(C)C` [Compound 30, (2S,4S)-1-acryloyl-4-((6-(2,6-dichloro-3,5-dimethoxyphenyl)quinazolin-2-yl)amino)-N,N-dimethylpyrrolidin-2-carboxamide], the IC50 amounted to 9 nM in test [1], 77.5 nM in test [3], 117 nM in test [4] and 657 nM in test [2].
`C=CC(=O)N1C[C@@H](Nc2ncc3cc(-c4c(Cl)c(OC)cc(OC)c4Cl)ccc3n2)C[C@H]1CNC(C)=O` [Compound 32, N-(((2S,4S)-1-acryloyl-4-((6-(2,6-dichloro-3,5-dimethoxyphenyl)quinazolin-2-yl)amino)pyrrolidin-2-yl)methyl)acetamide]: the IC50 in test [3] was found to be 147 nM; in test [4] it was 78 nM; in test [5] it was 48 nM; in test [6] it was 167 nM.
On to `C=CC(=O)N1C[C@@H](Nc2ncc3cc(-c4c(Cl)c(OC)cc(OC)c4Cl)ccc3n2)C[C@H]1CNS(C)(=O)=O` [Compound 33, N-(((2S,4S)-1-acryloyl-4-((6-(2,6-dichloro-3,5-dimethoxyphenyl)quinazolin-2-yl)amino)pyrrolidin-2-yl)methyl)methanesulfonamide], for which the IC50 in test [3] is 75.4 nM; in test [4], 65 nM; in test [5], 34 nM; in test [6] it was 149 nM.
On to `C=CC(=O)N1C[C@@H](Nc2ncc3cc(-c4c(Cl)c(OC)cc(OC)c4Cl)ccc3n2)C[C@H]1C(=O)N1CCC1` [Compound 35, 1-((2S,4S)-2-(azetidine-1-carbonyl)-4-((6-(2,6-dichloro-3,5-dimethoxyphenyl)quinazolin-2-yl)amino)pyrrolidin-1-yl)prop-2-en-1-one], for which the IC50 came to 95 nM in test [3], 60 nM in test [4], 52 nM in test [5] and 112 nM in test [6].
As to `C=CC(=O)N1C[C@@H](Nc2ncc3cc(-c4c(Cl)c(OC)cc(OC)c4Cl)ccc3n2)C[C@H]1C(=O)OCC` [Compound 36, ethyl(2S,4S)-1-acryloyl-4-((6-(2,6-dichloro-3,5-dimethoxyphenyl)quinazolin-2-yl)amino)pyrrolidin-2-carboxylate], the IC50 in test [3] was 70.7 nM.
Regarding `C=CC(=O)N1C[C@@H](Nc2ncc3cc(-c4c(Cl)c(OC)cc(OC)c4Cl)ccc3n2)C[C@H]1C(=O)NC` [Compound 37], the IC50 in test [1] was determined as 8.9 nM; in test [2] it was 317 nM.
On the same counts, the results for `C=CC(=O)N1C[C@@H](O)[C@H](Nc2ncc3cc(-c4c(Cl)c(OC)cc(OC)c4Cl)ccc3n2)C1` [Compound 39] are < 3 nM and 318 nM.
Consider `C=CC(=O)N1C[C@H](Nc2ncc3cc(-c4c(Cl)c(OC)cc(OC)c4Cl)ccc3n2)[C@@H](C)C1` [Compound 41], for which the IC50 in test [1] amounted to 7 nM.
Turning to `C=CC(=O)N1C[C@@H](Nc2ncc3cc(-c4c(Cl)c(OC)cc(OC)c4Cl)ccc3n2)C[C@H]1COC` [Compound 53, 1-((2S,4S)-4-((6-(2,6-dichloro-3,5-dimethoxyphenyl)quinazolin-2-yl)amino)-2-(methoxymethyl)pyrrolidin-1-yl)prop-2-en-1-one], the IC50 was found to be 97 nM in test [4] and 82 nM in test [5].
Turning to `C=CC(=O)N1C[C@@H](Nc2ncc3cc(-c4c(Cl)c(OC)cc(OC)c4Cl)ccc3n2)C[C@H]1C(=O)N1CCCC1` [Compound 55, 1-((2S,4S)-4-((6-(2,6-dichloro-3,5-dimethoxyphenyl)quinazolin-2-yl)amino)-2-(pyrrolidin-1-carbonyl)pyrrolidin-1-yl)prop-2-en-1-one], the IC50 in test [4] amounted to 54 nM; in test [5] it was 21 nM; in test [6], 66 nM.
As for `C=CC(=O)N1CCC(Nc2ncc3cc(-c4c(Cl)c(OC)cc(OC)c4Cl)ccc3n2)C(C)C1` (stereo not shown) [Compound 61], the IC50 in test [1] stood at 6 nM; in test [2] it was 268 nM.
Consider `CC#CC(=O)N1CCC[C@H](Nc2ncc3cc(-c4c(Cl)c(OC)cc(OC)c4Cl)ccc3n2)C1` [Compound 62], for which the IC50 in test [1] is 7 nM.
Regarding `CC#CC(=O)N1CCC(Nc2ncc3cc(-c4c(Cl)c(OC)cc(OC)c4Cl)ccc3n2)CC1` [Compound 63], the results for the IC50 in test [1] and in test [2] were < 3 nM and 196 nM, respectively.
